Format in all cases: cell-based
One experiment has as its system Aspergillus fumigatus. Kind of experiment: In vitro antimicrobial activity against Aspergillus fumigatus. The note with it: for IC50: Aspergillus fumigatus, read-out: A. fumigatus IC50; for A. fumigatus IC50: Table 5, extracts tested at 8-200 μg/mL. How it is done: (§1) Fifty organic extracts were prepared from 25 whole broth of four microbial strains (MS1479, MS2379, MS2820, and MS2414), which were fermented in different media for the antimicrobial testing. Note each whole broth culture generated one n-butanol extract from cultural supernatant and one methanol extract from cell pellets.
(§2) The antimicrobial activities of the 50 organic extracts were studied against three fungal pathogens—Candida albicans, Aspergillus fumigatus, and Cryptococcus neoformans—and five bacterial strains-Methicillin-resistant Staphylococcus aureus (MIRSA), Escherichia coli, Pseudomonas aeruginosa, Klebsiella pneumoniae, and Vancomycin-resistant Enterococcus faecium (VRE) (FIG. 2). The test concentrations for all extracts were in the range of 8-200 μg/mL (Table 3).
(§3) The antimicrobial activities of identified fusaricidins were in an in vitro study against several clinically relevant microbes. […] For the in-vitro assays against bacteria, fusaricidins were tested against methicillin-resistant Staphylococcus aureus, vancomycin-resistant Enterococcus faecium, Escherichia coli, and Pseudomonas aeruginosa using four antibacterial drugs methicillin, vancomycin, cefotaxime, and meropenem as controls. […] Fusaricidins were also tested against fungal pathogens Cryptococcus neoformans, Candida albicans, and Aspergillus fumigatus and compared with two antifungal drugs, fluconazole and amphotericin B (Table 13). Moreover, the anti-parasitic activity was also tested against L. donovani and T. brucei (Table 14).

Experiment [1] concerns Methicillin-resistant Staphylococcus aureus (MRSA). Kind of experiment: In vitro antimicrobial activity against MRSA. To be noted: for MIC: read-out: MRSA MIC (minimum inhibitory concentration). How it is done:
as §1, §2, §3

Another experiment has as its system Pseudomonas aeruginosa. Kind of experiment: In vitro antimicrobial activity against Pseudomonas aeruginosa. How it is done: as §1, §2, §3
For another experiment, the system named is Escherichia coli. The experiment is described as follows: In vitro antimicrobial activity against Escherichia coli. How it is done: as §1, §2, §3
The subject of the next experiment is Candida albicans. Kind of experiment: In vitro antimicrobial activity against Candida albicans. The note with it: for IC50: Candida albicans, read-out: C. albicans IC50; for C. albicans IC50: Table 5, extracts tested at 8-200 μg/mL. How it is done:
as §1, §2, §3

For experiment [2], the system named is Vancomycin-resistant Enterococcus faecium (VRE). The experiment is described as follows: In vitro antimicrobial activity against VRE. To be noted: for MIC: read-out: VRE MIC (minimum inhibitory concentration); for VRE IC50: Table 5, extracts tested at 8-200 μg/mL. How it is done: as §1, §2, §3
The next experiment relates to Klebsiella pneumoniae. Kind of experiment: In vitro antimicrobial activity against Klebsiella pneumoniae. To be noted: Klebsiella pneumoniae, read-out: K pneumoniae IC50. How it is done: as §1, §2
Another experiment concerns Cryptococcus neoformans. The experiment is described as follows: In vitro antimicrobial activity against Cryptococcus neoformans. The note with it: for IC50: Cryptococcus neoformans, read-out: C. neoformans IC50; for C. neoformans IC50: Table 5, extracts tested at 8-200 μg/mL. How it is done: as §1, §2
The potent activities against the fungal pathogen C. neoformans and the gram-positive bacteria S. aureus, MRSA, and M. intracellulare were also shown in the crude extracts (FIG. 7).
as §3

Another experiment relates to T. brucei. The experiment is described as follows: In-vitro antiparasitic activity against T. brucei. How it is done: as §3
Where [3] appears, read: test conc. 200-8 μg/mL (extracts), 100-4 or 10-0.4 μg/mL (drugs).

In brackets after ≈: the same amount, converted by molar mass. Where two headings read alike, the source gives them in different places.

On to `COc1cccc(OC)c1C(=O)N[C@@H]1C(=O)N2[C@@H]1SC(C)(C)[C@@H]2C(=O)O` [Methicillin], for which the IC50 is over 100 µg/mL in the experiment with Aspergillus fumigatus (setting [3]); 12.1 µg/mL (≈ 31.8 µM) in [1] (ATCC 1708 / MRSA, Table 13, Methicillin-resistant Staphylococcus aureus ATCC 1708, read-out: MRSA IC50 (50% growth inhibitory concentration)); 19 µg/mL (≈ 49.9 µM) in experiment [1] (Staphylococcus aureus, MRSA, test conc. 200-8 μg/mL (extracts), 100-4 or 10-0.4 μg/mL (drugs), read-out: MRS IC50); 76 µg/mL (≈ 200 µM) with Pseudomonas aeruginosa (ATCC2108, Table 13, Pseudomonas aeruginosa ATCC 2108, read-out: P. aeruginosa IC50 (50% growth inhibitory concentration)); 95.4 µg/mL (≈ 251 µM) in the experiment on Pseudomonas aeruginosa (Pseudomonas aeruginosa, test conc. 200-8 μg/mL (extracts), 100-4 or 10-0.4 μg/mL (drugs), read-out: P. aeruginosa IC50); over 100 µg/mL with Escherichia coli (ATCC2452, Table 13, Escherichia coli ATCC 2452, read-out: E. coli IC50 (50% growth inhibitory concentration)). Moreover, the IC50 in the experiment on Escherichia coli (Escherichia coli, test conc. 200-8 μg/mL (extracts), 100-4 or 10-0.4 μg/mL (drugs), read-out: E. coli IC50) was over 100 µg/mL; in the experiment on Candida albicans (setting [3]) it was over 100 µg/mL; in experiment [2] (ATCC 700221 / VRE, Table 13, Vancomycin-resistant Enterococcus faecium ATCC 700221, read-out: VRE IC50 (50% growth inhibitory concentration)), over 100 µg/mL; in [2] (test conc. 200-8 μg/mL (extracts), 100-4 or 10-0.4 μg/mL (drugs), read-out: VRE IC50) it was over 100 µg/mL; in the experiment with Klebsiella pneumoniae (setting [3]) it was over 100 µg/mL; with Cryptococcus neoformans (setting [3]), over 100 µg/mL. The “A. fumigatus IC50” value in the experiment with Aspergillus fumigatus was over 100 µg/mL. Moreover, the MIC is 50 µg/mL (≈ 131 µM) in experiment [1] (ATCC 1708 / MRSA, Table 13, Methicillin-resistant Staphylococcus aureus ATCC 1708); over 100 µg/mL in the experiment with Pseudomonas aeruginosa (ATCC2108, Table 13, Pseudomonas aeruginosa ATCC 2108, read-out: P. aeruginosa MIC (minimum inhibitory concentration)); over 100 µg/mL in the experiment on Escherichia coli (ATCC2452, Table 13, Escherichia coli ATCC 2452, read-out: E. coli MIC (minimum inhibitory concentration)); over 100 µg/mL in experiment [2] (ATCC 700221 / VRE, Table 13, Vancomycin-resistant Enterococcus faecium ATCC 700221). The “C. albicans IC50” value in the experiment with Candida albicans was over 100 µg/mL. The “VRE IC50” value in experiment [2] is over 100 µg/mL. Moreover, the “C. neoformans IC50” value with Cryptococcus neoformans was over 100 µg/mL.

On to `CN[C@H](CC(C)C)C(=O)N[C@H]1C(=O)N[C@@H](CC(N)=O)C(=O)N[C@H]2C(=O)N[C@H]3C(=O)N[C@H](C(=O)N[C@H](C(=O)O)c4cc(O)cc(O)c4-c4cc3ccc4O)[C@H](O)c3ccc(c(Cl)c3)Oc3cc2cc(c3O[C@@H]2O[C@H](CO)[C@@H](O)[C@H](O)[C@H]2O[C@H]2C[C@](C)(N)[C@H](O)[C@H](C)O2)Oc2ccc(cc2Cl)[C@H]1O` [Vancomycin], for which the IC50 in the experiment on Aspergillus fumigatus is over 100 µg/mL; in experiment [1] (Staphylococcus aureus, ATCC 1708 / MRSA, read-out: MRSA IC50 (50% growth inhibitory concentration)), 1.3 µg/mL (≈ 0.897 µM); in [1] (Staphylococcus aureus, MRSA, read-out: MRS IC50) it was 0.17 µg/mL (≈ 0.117 µM); in the experiment with Pseudomonas aeruginosa (Pseudomonas aeruginosa, ATCC2108, read-out: P. aeruginosa IC50 (50% growth inhibitory concentration)) it was over 100 µg/mL; in the experiment with Pseudomonas aeruginosa (Pseudomonas aeruginosa, read-out: P. aeruginosa IC50), over 100 µg/mL; in the experiment with Escherichia coli (Escherichia coli, ATCC2452, read-out: E. coli IC50 (50% growth inhibitory concentration)) it was 62.3 µg/mL (≈ 43 µM). Further, the IC50 in the experiment with Escherichia coli (Escherichia coli, read-out: E. coli IC50) was 67.4 µg/mL (≈ 46.5 µM); with Candida albicans, over 100 µg/mL; in [2] (Enterococcus faecium, ATCC 700221 / VRE, read-out: VRE IC50 (50% growth inhibitory concentration)), over 100 µg/mL; in experiment [2] (read-out: VRE IC50), over 100 µg/mL; in the experiment with Klebsiella pneumoniae, over 100 µg/mL; with Cryptococcus neoformans, over 100 µg/mL. Moreover, in the experiment with Aspergillus fumigatus, the “A. fumigatus IC50” value was over 100 µg/mL. Further, the MIC in [1] (Staphylococcus aureus, ATCC 1708 / MRSA) is 1.6 µg/mL (≈ 1.1 µM); with Pseudomonas aeruginosa (Pseudomonas aeruginosa, ATCC2108, read-out: P. aeruginosa MIC (minimum inhibitory concentration)), over 100 µg/mL; with Escherichia coli (Escherichia coli, ATCC2452, read-out: E. coli MIC (minimum inhibitory concentration)), over 100 µg/mL; in experiment [2] (Enterococcus faecium, ATCC 700221 / VRE) it was over 100 µg/mL. Also, the “C. albicans IC50” value in the experiment on Candida albicans is over 100 µg/mL. Moreover, the “VRE IC50” value in experiment [2] was over 100 µg/mL. Besides, the “C. neoformans IC50” value in the experiment with Cryptococcus neoformans was over 100 µg/mL.

Consider `NCCC[C@](N)(C(=O)O)C(F)F` [α-Difluoromethylomithine], for which, in the experiment with T. brucei, the “T. brucei IC50” value amounted to 5.7 µg/mL. In addition, the “T. brucei IC90” value with T. brucei (90% inhibitory concentration) was determined as 6.6 µg/mL.

The values above are taken from US12274732B2, “Anti-pathogen composition and methods of use thereof” (Tenfold Technologies, LLC, priority 2017, dated 2025).
